Among the data in ChEMBL document CHEMBL1156522, “Lateral compartmentalization of T cell receptor versus CD45 by galectin-N-glycan binding and microfilaments coordinate basal and activation signaling” (J Biol Chem, 2007) are Activity and IC50 values, retold here.

The source made the active and inactive calls. The calls are words filed in the database; no cut-off is given here.

In assay [1] the test system is T-cell. Description: Effect on CD4 distribution within GM1-enriched microdomain in C57BL/6 mouse Mgat5 expressing T cells pretreated at 20 uM. The format is functional, cell-based.
Assay [2] relates to T-cell. Description: Effect on CD45 distribution within GM1-enriched microdomain in C57BL/6 mouse Mgat5 expressing T cells pretreated at 20 uM. It counts as functional, cell-based.
The test system of assay [3] is T-cell. The assay is described as follows: Effect on TCR distribution within GM1-enriched microdomain in C57BL/6 mouse Mgat5 expressing T cells pretreated at 20 uM. It counts as functional, cell-based.
Assay [4] relates to Jurkat. The assay is described as follows: Induction of Nck protein binding to TCR complex in human Jurkat T cells by immunoprecipitation. It counts as cell-based.
Assay [5] has as its system Jurkat. Description: Reduction of CD45 co-localization with GM1-enriched microdomain in human Jurkat T cells after 3 days. The format is functional, cell-based.
Assay [6] is filed under the species Homo sapiens. The assay is described as follows: Enhancement of Lck localization within GM1-enriched microdomain in CD45 deficient human J45.01 cells by Western blot. The format is functional.
The species named for assay [7] is Homo sapiens. The assay is described as follows: Increase in CD45 galectin lattice partition to GM1-enriched microdomain in CD45 deficient human J45.01 cells by densitometry. It counts as functional.
For assay [8], the system named is T-cell. Description: Reduction of CD45 co-localization with GM1-enriched microdomain in resting C57BL/6 mouse T cells pretreated for 20 mins. It counts as functional, cell-based.
For assay [9], the system named is Jurkat. Description: Increase in TCR-CD3 galectin lattice partition to GM1-enriched microdomain in human Jurkat T cells by densitometry. The format is functional, cell-based.
The target in assay [10] is T1, Tyrosine-protein kinase ZAP-70 (Homo sapiens) (UniProt P43403).
T1 sequence (whole entry): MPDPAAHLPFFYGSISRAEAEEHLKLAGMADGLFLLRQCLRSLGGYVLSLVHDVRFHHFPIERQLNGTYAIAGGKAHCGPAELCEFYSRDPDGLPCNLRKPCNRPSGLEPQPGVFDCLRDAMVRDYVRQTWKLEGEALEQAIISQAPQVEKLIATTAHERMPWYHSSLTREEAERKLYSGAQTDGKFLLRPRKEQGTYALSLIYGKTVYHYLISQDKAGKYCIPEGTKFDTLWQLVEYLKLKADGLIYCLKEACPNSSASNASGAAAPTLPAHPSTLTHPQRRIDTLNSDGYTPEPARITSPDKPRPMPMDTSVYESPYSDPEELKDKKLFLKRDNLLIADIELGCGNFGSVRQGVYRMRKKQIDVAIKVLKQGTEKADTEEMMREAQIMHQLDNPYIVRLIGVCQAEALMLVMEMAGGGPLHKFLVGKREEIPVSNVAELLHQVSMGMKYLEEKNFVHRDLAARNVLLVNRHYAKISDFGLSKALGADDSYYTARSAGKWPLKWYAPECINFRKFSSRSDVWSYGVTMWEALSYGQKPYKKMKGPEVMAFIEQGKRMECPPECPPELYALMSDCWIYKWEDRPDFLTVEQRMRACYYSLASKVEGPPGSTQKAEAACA
The assay is described as follows: Increase in Zap70 phosphorylation in anti-CD3-coated microbeads-stimulated CD45 deficient human J45.01 cells after 3 days.

In assay [11] the test system is Jurkat. Description: Increase in CD45 galectin lattice partition to GM1-enriched microdomain in CD4 deficient human Jurkat D1. 1 cells by densitometry. The format is functional, cell-based.
Assay [12] relates to Jurkat. Description: Increase in CD4 galectin lattice partition to GM1-enriched microdomain in human Jurkat T cells by densitometry. The format is functional, cell-based.
Assay [13] concerns the target T2, Tyrosine-protein kinase Lck (Homo sapiens, UniProt P06239). The assay is described as follows: Induction of Lck Tyr394 phosphorylation in human Jurkat T cells at 5 uM after 3 days by Western blot analysis. It counts as cell-based.
Target sequence in this assay (P06239 2-509 limits assumed): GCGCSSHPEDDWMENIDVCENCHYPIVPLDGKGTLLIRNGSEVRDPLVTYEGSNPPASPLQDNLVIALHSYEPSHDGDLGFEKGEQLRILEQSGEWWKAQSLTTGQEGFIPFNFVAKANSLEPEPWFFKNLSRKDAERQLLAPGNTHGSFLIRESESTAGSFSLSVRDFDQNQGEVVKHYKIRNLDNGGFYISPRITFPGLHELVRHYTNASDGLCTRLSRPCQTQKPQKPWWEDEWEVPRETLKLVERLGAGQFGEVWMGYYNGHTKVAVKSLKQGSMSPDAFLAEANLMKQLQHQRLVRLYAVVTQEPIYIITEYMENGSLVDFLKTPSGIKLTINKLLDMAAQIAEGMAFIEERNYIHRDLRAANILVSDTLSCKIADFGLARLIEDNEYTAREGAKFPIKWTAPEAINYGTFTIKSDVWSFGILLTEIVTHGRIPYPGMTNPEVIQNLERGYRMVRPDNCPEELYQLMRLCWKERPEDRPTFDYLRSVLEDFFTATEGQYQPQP
The subject of assay [14] is J-RT3-T3-5. Description: Enhancement of Lck localization within GM1-enriched microdomain in TCRbeta deficient human J.RT3-T3.5 cells by Western blot. The format is functional.
The target of assay [15] is T3, Linker for activation of T-cells family member 1 (Homo sapiens) (UniProt O43561).
T3 sequence (whole entry): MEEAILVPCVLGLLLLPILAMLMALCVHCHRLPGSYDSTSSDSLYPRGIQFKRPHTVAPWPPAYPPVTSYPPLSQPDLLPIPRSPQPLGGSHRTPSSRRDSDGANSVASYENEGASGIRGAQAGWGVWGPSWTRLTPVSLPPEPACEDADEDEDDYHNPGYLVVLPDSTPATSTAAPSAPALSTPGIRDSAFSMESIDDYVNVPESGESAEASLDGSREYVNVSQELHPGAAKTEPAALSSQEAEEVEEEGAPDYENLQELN
Description: Increase in LAT phosphorylation in anti-CD3-coated microbeads-stimulated CD45 deficient human J45.01 cells after 3 days.

Assay [16] has as its target T2, Tyrosine-protein kinase Lck. The assay is described as follows: Induction of Lck Tyr394 phosphorylation in TCRbeta deficient human Jurkat T J.RT3-T3.5 cells at 5 uM after 3 days by Western blot analysis. The format is cell-based.
Target sequence in this assay (P06239 2-509 limits assumed): as the sequence (P06239 2-509 limits assumed) above
Assay [17] concerns J-RT3-T3-5. Description: Increase in CD45 galectin lattice partition to GM1-enriched microdomain TCRbeta deficient human J.RT3-T3.5 cells by densitometry. It counts as functional.
Assay [18] has as its system T-cell. Description: Increase CD4 co-localization to GM1-enriched microdomain in C57BL/6 mouse T cells pretreated for 20 mins. The format is functional, cell-based.
The subject of assay [19] is Jurkat. The assay is described as follows: Increase in ZAP70 expression in GM1-enriched microdomain of human Jurkat T cells by Western blot. It counts as functional, cell-based.
Assay [20] relates to J-RT3-T3-5. The assay is described as follows: Increase in CD4 galectin lattice partition to GM1-enriched microdomain TCRbeta deficient human J.RT3-T3.5 cells by densitometry. It counts as functional.
Assay [21] concerns T-cell. Description: Increase T cell receptor co-localization to GM1-enriched microdomain in C57BL/6 mouse T cells pretreated for 20 mins. It counts as functional, cell-based.
For assay [22], the system named is Jurkat. The assay is described as follows: Increase in TCR-CD3 galectin lattice partition to GM1-enriched microdomain in CD4 deficient human Jurkat D1. 1 cells by densitometry. It counts as functional, cell-based.
For assay [23], the system named is Jurkat. Description: Enhancement of Lck localization within GM1-enriched microdomain in human Jurkat T cells by Western blot. The format is functional, cell-based.
Assay [24] addresses T1, Tyrosine-protein kinase ZAP-70 (Homo sapiens). Description: Induction of ZAP70 phosphorylation in human Jurkat T cells at 5 uM after 3 days by Western blot analysis. The format is cell-based.
For assay [25], the species on record is Homo sapiens. Description: Increase in TCR-CD3 galectin lattice partition to GM1-enriched microdomain in CD45 deficient human J45.01 cells by densitometry. It counts as functional.
The species named for assay [26] is Homo sapiens. The assay is described as follows: Increase in CD4 galectin lattice partition to GM1-enriched microdomain in CD45 deficient human J45.01 cells by densitometry. The format is functional.
The species named for assay [27] is Homo sapiens. The assay is described as follows: Increase in ZAP70 expression in GM1-enriched microdomain of Lck defient human JCaM1.6 cells by Western blot. The format is functional.
The target of assay [28] is T2, Tyrosine-protein kinase Lck. Description: Induction of Lck Tyr394 phosphorylation in CD4 deficient human Jurkat T D1.1 cells at 5 uM after 3 days by Western blot analysis. It counts as cell-based.
Target sequence in this assay (P06239 2-509 limits assumed): as the sequence (P06239 2-509 limits assumed) above
For assay [29], the system named is Jurkat. Description: Enhancement of Lck localization within GM1-enriched microdomain in CD4 deficient human Jurkat D1. 1 cells by Western blot. The format is functional, cell-based.
The test system of assay [30] is Jurkat. Description: Reduction of CD4 surface expression in Lck deficient human Jurkat T cells by flow cytometry. The format is functional, cell-based.
Assay [31] has as its system Jurkat. Description: Increase in CD45 galectin lattice partition to GM1-enriched microdomain in human Jurkat T cells by densitometry. It counts as functional, cell-based.
For assay [32], the target named is T2, Tyrosine-protein kinase Lck. The assay is described as follows: Induction of Lck Tyr394 phosphorylation in CD45 deficient human Jurkat T DJ45.01 cells at 5 uM after 3 days by Western blot analysis. The format is cell-based.
Target sequence in this assay (P06239 2-509 limits assumed): as the sequence (P06239 2-509 limits assumed) above
The target in assay [33] is T3, Linker for activation of T-cells family member 1 (Homo sapiens). Description: Induction of LAT phosphorylation in human Jurkat T cells at 5 uM after 3 days by Western blot analysis. It counts as cell-based.
The subject of assay [34] is J-RT3-T3-5. The assay is described as follows: Increase in TCR-CD3 galectin lattice partition to GM1-enriched microdomain TCRbeta deficient human J.RT3-T3.5 cells by densitometry. The format is functional.
Assay [35] addresses Proto-oncogene tyrosine-protein kinase LCK (Mus musculus) (UniProt P06240). Description: Reversal of reduction of Lck Tyr394 phosphorylation in resting C57BL/6 mouse T cells at 20 uM by Western blot. The conditions noted are these: T-cell. The format is cell-based.
Assay [36] has the same target. Description: Reduction of Lck Tyr394 phosphorylation in resting C57BL/6 mouse T cells at 20 uM by Western blot. It counts as cell-based. Particulars: T-cell.
Assay [37] deals with Tyrosine-protein phosphatase non-receptor type 13 (Homo sapiens, UniProt Q12923). The assay is described as follows: Inhibition of protein tyrosine phosphatase N13 phosphorylation.
Assay [38] addresses T4, Tyrosine-protein phosphatase non-receptor type 1 (Homo sapiens, UniProt P18031).
T4 sequence (P18031 whole entry): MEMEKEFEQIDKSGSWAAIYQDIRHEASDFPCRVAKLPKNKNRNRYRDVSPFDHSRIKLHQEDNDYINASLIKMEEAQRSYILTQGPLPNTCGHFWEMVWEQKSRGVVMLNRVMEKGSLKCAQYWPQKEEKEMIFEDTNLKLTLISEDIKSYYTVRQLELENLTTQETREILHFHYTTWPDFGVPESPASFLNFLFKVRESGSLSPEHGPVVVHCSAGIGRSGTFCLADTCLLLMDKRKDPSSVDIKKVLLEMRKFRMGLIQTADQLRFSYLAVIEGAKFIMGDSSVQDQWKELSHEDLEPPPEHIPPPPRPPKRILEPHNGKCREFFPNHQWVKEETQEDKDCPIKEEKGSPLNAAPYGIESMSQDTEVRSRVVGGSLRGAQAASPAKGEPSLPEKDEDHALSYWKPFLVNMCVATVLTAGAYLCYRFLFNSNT
Description: Inhibition of protein tyrosine phosphatase N1 phosphorylation.

For assay [39], the target named is T2, Tyrosine-protein kinase Lck. The assay is described as follows: Inhibition of Lck phosphorylation.
Target sequence in this assay (P06239 whole entry): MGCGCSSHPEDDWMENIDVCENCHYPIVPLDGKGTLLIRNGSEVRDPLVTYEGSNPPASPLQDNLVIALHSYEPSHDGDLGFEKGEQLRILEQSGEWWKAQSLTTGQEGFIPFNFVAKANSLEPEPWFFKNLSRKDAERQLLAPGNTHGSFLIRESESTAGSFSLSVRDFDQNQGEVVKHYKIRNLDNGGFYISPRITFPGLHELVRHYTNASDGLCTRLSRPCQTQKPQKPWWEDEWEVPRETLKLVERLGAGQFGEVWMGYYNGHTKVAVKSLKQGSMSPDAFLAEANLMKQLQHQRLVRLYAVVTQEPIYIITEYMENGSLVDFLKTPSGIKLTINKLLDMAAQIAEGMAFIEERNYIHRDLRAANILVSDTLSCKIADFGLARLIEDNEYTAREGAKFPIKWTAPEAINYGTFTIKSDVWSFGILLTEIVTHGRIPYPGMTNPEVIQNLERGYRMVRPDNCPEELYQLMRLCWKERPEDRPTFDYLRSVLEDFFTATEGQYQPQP

Chain of Proto-oncogene tyrosine-protein kinase LCK (Mus musculus) (P06240 2-509 limits assumed): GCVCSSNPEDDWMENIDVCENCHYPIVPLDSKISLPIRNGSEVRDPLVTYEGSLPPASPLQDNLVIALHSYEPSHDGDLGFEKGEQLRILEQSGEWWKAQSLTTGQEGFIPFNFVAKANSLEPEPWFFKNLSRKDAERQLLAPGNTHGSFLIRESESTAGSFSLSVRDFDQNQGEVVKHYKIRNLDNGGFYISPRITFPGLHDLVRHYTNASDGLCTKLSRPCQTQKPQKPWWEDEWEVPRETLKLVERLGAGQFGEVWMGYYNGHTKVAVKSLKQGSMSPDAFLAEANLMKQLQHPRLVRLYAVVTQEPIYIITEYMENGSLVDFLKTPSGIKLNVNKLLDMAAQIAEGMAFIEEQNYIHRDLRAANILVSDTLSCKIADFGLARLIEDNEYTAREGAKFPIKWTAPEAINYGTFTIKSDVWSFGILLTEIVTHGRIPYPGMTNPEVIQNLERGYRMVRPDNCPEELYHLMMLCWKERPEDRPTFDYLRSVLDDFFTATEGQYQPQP
Chain of Tyrosine-protein phosphatase non-receptor type 13 (Q12923 whole entry): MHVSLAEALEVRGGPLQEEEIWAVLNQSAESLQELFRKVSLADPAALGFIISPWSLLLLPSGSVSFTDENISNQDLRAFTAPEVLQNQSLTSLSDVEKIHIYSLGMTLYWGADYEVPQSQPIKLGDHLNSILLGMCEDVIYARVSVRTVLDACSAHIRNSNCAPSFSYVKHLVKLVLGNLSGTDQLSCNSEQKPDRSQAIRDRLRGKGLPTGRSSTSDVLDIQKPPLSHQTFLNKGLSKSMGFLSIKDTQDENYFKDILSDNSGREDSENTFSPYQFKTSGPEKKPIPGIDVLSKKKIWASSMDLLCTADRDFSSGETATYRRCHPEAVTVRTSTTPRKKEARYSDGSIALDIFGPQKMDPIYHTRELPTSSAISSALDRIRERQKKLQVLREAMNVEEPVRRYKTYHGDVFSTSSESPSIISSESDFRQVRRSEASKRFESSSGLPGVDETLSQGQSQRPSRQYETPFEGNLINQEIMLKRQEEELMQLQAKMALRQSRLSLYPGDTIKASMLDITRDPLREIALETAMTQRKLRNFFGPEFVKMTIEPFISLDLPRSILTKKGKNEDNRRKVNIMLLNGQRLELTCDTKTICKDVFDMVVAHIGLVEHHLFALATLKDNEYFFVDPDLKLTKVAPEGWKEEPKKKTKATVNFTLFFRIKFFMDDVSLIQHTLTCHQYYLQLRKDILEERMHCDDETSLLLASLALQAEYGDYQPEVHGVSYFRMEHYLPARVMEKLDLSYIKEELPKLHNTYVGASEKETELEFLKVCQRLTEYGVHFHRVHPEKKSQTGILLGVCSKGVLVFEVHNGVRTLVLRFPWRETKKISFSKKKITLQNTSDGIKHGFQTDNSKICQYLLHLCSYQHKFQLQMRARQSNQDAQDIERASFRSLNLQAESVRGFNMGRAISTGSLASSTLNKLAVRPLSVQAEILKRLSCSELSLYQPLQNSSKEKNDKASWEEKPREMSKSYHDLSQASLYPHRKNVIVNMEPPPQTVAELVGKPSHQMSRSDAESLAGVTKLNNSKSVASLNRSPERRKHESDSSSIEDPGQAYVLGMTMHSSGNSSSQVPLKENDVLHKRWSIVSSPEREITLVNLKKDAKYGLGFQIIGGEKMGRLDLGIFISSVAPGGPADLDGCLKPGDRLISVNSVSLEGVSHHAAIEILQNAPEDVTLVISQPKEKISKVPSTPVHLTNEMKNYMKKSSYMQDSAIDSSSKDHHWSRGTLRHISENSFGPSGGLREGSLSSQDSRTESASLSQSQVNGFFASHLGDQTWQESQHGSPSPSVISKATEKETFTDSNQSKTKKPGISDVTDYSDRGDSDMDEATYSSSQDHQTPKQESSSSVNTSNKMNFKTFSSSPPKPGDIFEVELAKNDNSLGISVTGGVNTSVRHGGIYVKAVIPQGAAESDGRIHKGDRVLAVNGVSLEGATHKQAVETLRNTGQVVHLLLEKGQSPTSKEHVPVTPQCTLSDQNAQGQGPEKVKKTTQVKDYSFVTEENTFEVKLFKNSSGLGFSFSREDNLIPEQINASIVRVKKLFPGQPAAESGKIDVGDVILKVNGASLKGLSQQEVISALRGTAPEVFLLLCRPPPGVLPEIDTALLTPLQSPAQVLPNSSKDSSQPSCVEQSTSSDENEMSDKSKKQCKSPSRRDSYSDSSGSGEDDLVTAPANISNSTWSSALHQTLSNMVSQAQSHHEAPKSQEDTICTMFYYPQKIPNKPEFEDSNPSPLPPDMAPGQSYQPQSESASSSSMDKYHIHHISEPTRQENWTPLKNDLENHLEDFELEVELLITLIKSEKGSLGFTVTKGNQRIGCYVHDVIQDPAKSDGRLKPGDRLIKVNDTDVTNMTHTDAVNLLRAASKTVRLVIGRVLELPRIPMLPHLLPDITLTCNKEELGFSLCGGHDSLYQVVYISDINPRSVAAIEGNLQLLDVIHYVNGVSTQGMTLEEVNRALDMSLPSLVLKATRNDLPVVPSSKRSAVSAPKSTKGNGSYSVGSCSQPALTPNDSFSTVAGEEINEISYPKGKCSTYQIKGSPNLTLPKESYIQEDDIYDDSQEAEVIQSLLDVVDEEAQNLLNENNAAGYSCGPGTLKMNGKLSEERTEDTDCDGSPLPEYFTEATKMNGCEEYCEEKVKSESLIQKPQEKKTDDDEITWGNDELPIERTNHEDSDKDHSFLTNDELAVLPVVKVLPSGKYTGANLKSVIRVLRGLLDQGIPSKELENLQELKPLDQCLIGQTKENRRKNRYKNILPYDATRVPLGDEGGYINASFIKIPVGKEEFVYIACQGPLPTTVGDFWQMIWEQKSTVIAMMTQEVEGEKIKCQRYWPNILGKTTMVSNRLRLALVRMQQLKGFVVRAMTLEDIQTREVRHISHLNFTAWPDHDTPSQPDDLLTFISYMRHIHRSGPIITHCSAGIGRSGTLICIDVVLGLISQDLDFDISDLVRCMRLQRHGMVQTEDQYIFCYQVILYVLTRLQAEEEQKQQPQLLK

As for `CC(C)(C)n1nc(-c2ccc(Cl)cc2)c2c(N)ncnc21`, the result in the assay on T-cell [1], with T-cell [2] and in the assay on T-cell [3] was inactive.

Turning to LACTOSE, ANHYDROUS, the result in the assay on Jurkat [4] and with Jurkat [5] was Active.

For `O[C@H]1[C@H]2[C@H](O)CCCN2C[C@H]1O`, the result in the assay filed under Homo sapiens [6], in the assay listed under Homo sapiens [7], in the assay with T-cell [8], with Jurkat [9], in the assay on Jurkat [11] and with Jurkat [12] was Active. For the same compound, the result (in assay [13]; in the assay with J-RT3-T3-5 [17]; in the assay on T-cell [18]; with Jurkat [19]; in the assay with J-RT3-T3-5 [20]; in the assay on T-cell [21]) was Active. The result (with Jurkat [4]; with Jurkat [22]; with Jurkat [23]; in assay [24]; in the assay filed under Homo sapiens [25]; with Jurkat [29]) was Active. The outcome (with Jurkat [30]; with Jurkat [31]; in [33]; in the assay with J-RT3-T3-5 [34]) was Active. Also, the outcome (in assay [10]; in the assay with J-RT3-T3-5 [14]; in assay [15]; in assay [16]; in the assay listed under Homo sapiens [26]; in the assay listed under Homo sapiens [27]) was inactive. In addition, the outcome in assay [28] and in assay [32] was inactive.

Turning to `C/C1=C/C(=O)O[C@@H]2C[C@@H](CC[C@H](C)/C=C\C=C\CC1)O[C@@](O)([C@@H]1CSC(=O)N1)C2`, the result in assay [35] and in assay [36] was Active.

On to `CC(C)(C)C(=O)Nc1ccc2c(c1)C(=O)C(=O)c1ccccc1-2`, for which the IC50 was above 30 µM in assay [37], above 30 µM in [38] and 3.8 µM in assay [39].
